Reference: patent publication US20240252677A1, “ONE-COMPONENT DELIVERY SYSTEM FOR NUCLEIC ACIDS” (The Trustees of the University of Pennsylvania, priority 2021, published 2024)

Columns and labels:
[1] = DLS size of dendrimersomes assembled from glycerol-JDs in water at different concentrations; assay type: physicochemical; settings: for Dh (nm): size distribution by intensity
Experimental: Assembly of all eight glycerol-JDs was performed by injection of their ethanol solution (50 μL) into 1 mL of Milli-Q water. The size distribution and structure of resulting DSs were analyzed by DLS (FIG. 84) and cryo-TEM. […] In a certain concentration range the size of DSs increased with the concentration of JDs injected in water or buffer. […] The dimensions of the assemblies were identical when the concentrations of the JDs in water were identical. Sizes of assemblies from mixtures of 1R and 1S in different ratios (1:3, 1:1 and 3:1), were also identical (FIG. 84). […] With the exception of the rotation of polarized light, the physical properties of enantiomers and their racemic mixtures must be identical.
Dynamic light scattering (DLS). Hydrodynamic diameters (Dh) of the self-assemblies of dendrimer molecules and their size distributions were measured on a Malvern Instruments particle sizer (Zetasizer® Nano S, Malvern Instruments, UK) equipped with 4 mW He—Ne laser (633 nm) and avalanche photodiode positioned at […] to the beam and temperature controlled cuvette holder. Experiments were performed at 25° C. in triplicate. The distribution of radius was intensity.

[2] = Cryo-TEM of dendrimersomes from glycerol-JDs, number of vesicle layers; assay type: physicochemical; settings: for Number of vesicle layers: 1 (count of vesicles): vesicles with 1 layer; for Number of vesicle layers: 2 (count of vesicles): vesicles with 2 layers; for Number of vesicle layers: 3 (count of vesicles): vesicles with 3 layers; for Number of vesicle layers: 4 (count of vesicles): vesicles with 4 layers; for Number of vesicle layers: 5 (count of vesicles): vesicles with 5 layers; for Number of vesicle layers: 6 (count of vesicles): vesicles with 6 layers; for lamellarity of DSs (in words) / calculated percentages of unilamellar DSs in the selected images: cryo-TEM; for calculated percentages of unilamellar DSs in the selected images: JD 1 mg mL-1 in water; for Number of vesicle layers: 7 (count of vesicles): vesicles with 7 layers; for Number of vesicle layers: 8 (count of vesicles): vesicles with 8 layers; for Number of vesicle layers: 9 (count of vesicles): vesicles with 9 layers; for Number of vesicle layers: 10 (count of vesicles): vesicles with 10 layers; for Number of vesicle layers: 11 (count of vesicles): vesicles with 11 layers; for Number of vesicle layers: 12 (count of vesicles): vesicles with 12 layers
From the text: The red numbers in FIG. 85 stand for the unilamellar while yellow numbers for multilamellar DSs. The calculated percentages of unilamellar DSs in the selected images for 2R, 2S and 2rac are 91%, 70% and 13%, respectively. Same trend was found for cryo-TEM of 1R, 1S and 1rac (FIG. 86 through FIG. 88). […] Achiral DSs are all unilamellar.
Cryogenic Transmission Electron Microscopy (Cryo-TEM). Morphologies of the Janus Dendrimer assemblies were characterized by cryo-TEM. Images were acquired on a Carl Zeiss Libra 120 microscope. Samples were prepared by plunge freezing of aqueous dispersion on plasma-treated lacey grids. The vitrified specimens were then transferred to a Gatan-910 cryoholder. The 5 images were recorded at −170° C. with an acceleration voltage of 120 kV. The concentration of JD in the aqueous solution of DSs was 1 mg mL-^1.

PDI ([1]; JD 0.025 mg·mL−1 in water) | Dh (nm) ([1]; JD 0.025 mg·mL−1 in water) | PDI ([1]; JD 0.05 mg·mL−1 in water) | Dh (nm) ([1]; JD 0.05 mg·mL−1 in water) | PDI ([1]; JD 0.1 mg·mL−1 in water) | Dh (nm) ([1]; JD 0.1 mg·mL−1 in water) | PDI ([1]; JD 0.15 mg·mL−1 in water) | Dh (nm) ([1]; JD 0.15 mg·mL−1 in water) | PDI ([1]; JD 0.2 mg·mL−1 in water) | Dh (nm) ([1]; JD 0.2 mg·mL−1 in water) | PDI ([1]; JD 0.25 mg·mL−1 in water) | Dh (nm) ([1]; JD 0.25 mg·mL−1 in water) | PDI ([1]; JD 0.3 mg·mL−1 in water) | Dh (nm) ([1]; JD 0.3 mg·mL−1 in water) | PDI ([1]; JD 0.4 mg·mL−1 in water) | Dh (nm) ([1]; JD 0.4 mg·mL−1 in water) | PDI ([1]; JD 0.5 mg·mL−1 in water) | Dh (nm) ([1]; JD 0.5 mg·mL−1 in water) | Number of vesicle layers: 1 (count of vesicles) [2] | Number of vesicle layers: 2 (count of vesicles) [2] | SMILES | other results
0.455 | 82 | 0.336 | 87 | 0.197 | 110 | 0.195 | 124 | 0.175 | 135 | 0.202 | 140 | 0.190 | 148 | 0.228 | 178 | 0.326 | 233 | 61 | 15 | CCCCCCCCCCCCOc1cc(OCCCCCCCCCCCC)cc(C(=O)OC[C@H](COC(=O)C(C)(COC(=O)c2cc(OCCOCCOCCOC)c(OCCOCCOCCOC)c(OCCOCCOCCOC)c2)COC(=O)c2cc(OCCOCCOCCOC)c(OCCOCCOCCOC)c(OCCOCCOCCOC)c2)OC(=O)c2cc(OCCCCCCCCCCCC)cc(OCCCCCCCCCCCC)c2)c1 [Compound 1R, (3,5)-12G1-GC-(R)-BMPA-(3,4,5)-3EO-G1] | Number of vesicle layers: 3 (count of vesicles) [2]: 4; Number of vesicle layers: 4 (count of vesicles) [2]: 1; Number of vesicle layers: 5 (count of vesicles) [2]: 1; Number of vesicle layers: 6 (count of vesicles) [2]: 0
0.446 | 80 | 0.359 | 86 | 0.223 | 100 | 0.190 | 124 | 0.195 | 135 | 0.203 | 142 | 0.186 | 147 | 0.258 | 184 | 0.438 | 229 | 23 | 9 | CCCCCCCCCCCCOc1cc(OCCCCCCCCCCCC)cc(C(=O)OC[C@@H](COC(=O)C(C)(COC(=O)c2cc(OCCOCCOCCOC)c(OCCOCCOCCOC)c(OCCOCCOCCOC)c2)COC(=O)c2cc(OCCOCCOCCOC)c(OCCOCCOCCOC)c(OCCOCCOCCOC)c2)OC(=O)c2cc(OCCCCCCCCCCCC)cc(OCCCCCCCCCCCC)c2)c1 [Compound 1S, (3,5)-12G1-GC-(S)-BMPA-(3,4,5)-3EO-G1] | Number of vesicle layers: 3 (count of vesicles) [2]: 3; Number of vesicle layers: 4 (count of vesicles) [2]: 4; Number of vesicle layers: 5 (count of vesicles) [2]: 1; Number of vesicle layers: 6 (count of vesicles) [2]: 0
0.416 | 107 | 0.368 | 108 | 0.258 | 111 | 0.257 | 125 | 0.242 | 134 | 0.186 | 139 | 0.227 | 152 | 0.263 | 180 | 0.497 | 319 | 202 | 2 | CCCCCCCCCCCCOc1cc(OCCCCCCCCCCCC)cc(C(=O)OCC(C)(COC(=O)c2cc(OCCCCCCCCCCCC)cc(OCCCCCCCCCCCC)c2)C(=O)OC[C@@H](COC(=O)c2cc(OCCOCCOCCOC)c(OCCOCCOCCOC)c(OCCOCCOCCOC)c2)OC(=O)c2cc(OCCOCCOCCOC)c(OCCOCCOCCOC)c(OCCOCCOCCOC)c2)c1 [Compound 2R, (3,5)-12G1-BMPA-GC-(R)-(3,4,5)-3EO-G1] | lamellarity of DSs (in words) [2]: unilamellar DSs predominantly; calculated percentages of unilamellar DSs in the selected images [2]: 91%; Number of vesicle layers: 3 (count of vesicles) [2]: 5; Number of vesicle layers: 4 (count of vesicles) [2]: 1; Number of vesicle layers: 5 (count of vesicles) [2]: 3; Number of vesicle layers: 6 (count of vesicles) [2]: 2; Number of vesicle layers: 7 (count of vesicles) [2]: 0; Number of vesicle layers: 8 (count of vesicles) [2]: 0; Number of vesicle layers: 9 (count of vesicles) [2]: 0; Number of vesicle layers: 10 (count of vesicles) [2]: 0; Number of vesicle layers: 11 (count of vesicles) [2]: 1; Number of vesicle layers: 12 (count of vesicles) [2]: 0
0.465 | 106 | 0.422 | 107 | 0.291 | 112 | 0.212 | 119 | 0.203 | 128 | 0.223 | 132 | 0.235 | 153 | 0.205 | 165 | 0.295 | 288 | 63 | 13 | CCCCCCCCCCCCOc1cc(OCCCCCCCCCCCC)cc(C(=O)OCC(C)(COC(=O)c2cc(OCCCCCCCCCCCC)cc(OCCCCCCCCCCCC)c2)C(=O)OC[C@H](COC(=O)c2cc(OCCOCCOCCOC)c(OCCOCCOCCOC)c(OCCOCCOCCOC)c2)OC(=O)c2cc(OCCOCCOCCOC)c(OCCOCCOCCOC)c(OCCOCCOCCOC)c2)c1 [Compound 2S, (3,5)-12G1-BMPA-GC-(S)-(3,4,5)-3EO-G1] | lamellarity of DSs (in words) [2]: unilamellar DSs predominantly; calculated percentages of unilamellar DSs in the selected images [2]: 70%; Number of vesicle layers: 3 (count of vesicles) [2]: 9; Number of vesicle layers: 4 (count of vesicles) [2]: 1; Number of vesicle layers: 5 (count of vesicles) [2]: 0; Number of vesicle layers: 6 (count of vesicles) [2]: 0; Number of vesicle layers: 7 (count of vesicles) [2]: 1; Number of vesicle layers: 8 (count of vesicles) [2]: 1; Number of vesicle layers: 9 (count of vesicles) [2]: 0; Number of vesicle layers: 10 (count of vesicles) [2]: 3; Number of vesicle layers: 11 (count of vesicles) [2]: 1; Number of vesicle layers: 12 (count of vesicles) [2]: 0
